Data: patent publication US20260285872A1, “COMPOUNDS AND METHODS FOR DEGRADING GSPT1” (priority 2023, published 2026)
Like-named read-outs stand apart in the source and are kept apart here.

Key:
MV-4-11 cells = assay: AML cell viability, CellTiter-Glo, MV-4-11 cells; type: cell-based; settings: Homo sapiens, MV4-11, CellTiter-Glo, read-out: Cell viability classification
Experimental: MV4-11 cells were obtained from ATCC and grown in IMDM supplemented with 10% FBS. The cells were maintained at 37° C. under 5% CO2. […] The luminescence was normalized to that of DMSO-treated samples. IC50 values were obtained using three-parameter non-linear regressions using Prism (GraphPad). […] Cell viability was measured using the CellTiter-Glo reagent after 44 hours of treatment. […] MV4-11 cells were obtained from ATCC and grown in IMDM supplemented with 10% FBS. The cells were maintained at 37° C. under 5% CO2. […] Cell viability was measured using the CellTiter-Glo reagent after 44 hours of treatment.

GSPT1 [1] = molecular target: T1, GSPT1 (Homo sapiens, UniProt P15170+Q96SW2); assay: GSPT1 degradation, Western Blot, MV-4-11 cells, 0.1 μM, 4 hours; type: cell-based; settings: MV4-11, % reduction of GSPT1 compared to DMSO, normalized to GAPDH, read-out: GSPT1 degradation classification
T1 sequence (P15170 whole entry): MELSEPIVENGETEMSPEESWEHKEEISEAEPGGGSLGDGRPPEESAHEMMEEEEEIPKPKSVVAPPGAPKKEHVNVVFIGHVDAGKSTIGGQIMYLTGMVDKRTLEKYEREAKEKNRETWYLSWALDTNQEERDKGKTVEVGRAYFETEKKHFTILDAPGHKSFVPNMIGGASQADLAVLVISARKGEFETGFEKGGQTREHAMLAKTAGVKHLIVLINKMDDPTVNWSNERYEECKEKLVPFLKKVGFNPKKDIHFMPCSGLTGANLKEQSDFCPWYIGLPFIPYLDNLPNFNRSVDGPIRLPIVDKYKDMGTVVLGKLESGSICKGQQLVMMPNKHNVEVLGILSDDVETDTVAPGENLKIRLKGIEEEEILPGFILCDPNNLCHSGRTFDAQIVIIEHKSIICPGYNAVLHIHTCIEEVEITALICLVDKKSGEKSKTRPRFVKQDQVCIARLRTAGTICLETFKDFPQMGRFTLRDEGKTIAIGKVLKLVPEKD
T1 sequence (Q96SW2 whole entry): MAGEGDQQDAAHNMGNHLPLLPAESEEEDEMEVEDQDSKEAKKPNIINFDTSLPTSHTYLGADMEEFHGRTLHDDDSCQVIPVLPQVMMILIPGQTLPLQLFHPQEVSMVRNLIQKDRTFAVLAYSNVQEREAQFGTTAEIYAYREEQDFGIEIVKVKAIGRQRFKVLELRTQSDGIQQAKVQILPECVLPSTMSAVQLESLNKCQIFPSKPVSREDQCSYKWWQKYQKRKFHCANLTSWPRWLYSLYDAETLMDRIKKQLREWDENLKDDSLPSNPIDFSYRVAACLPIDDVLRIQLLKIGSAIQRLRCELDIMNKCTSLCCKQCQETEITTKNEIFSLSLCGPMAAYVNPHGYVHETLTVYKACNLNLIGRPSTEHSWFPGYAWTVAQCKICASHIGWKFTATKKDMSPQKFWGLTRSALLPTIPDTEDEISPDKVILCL
T1 sequence (Q16531 whole entry partner): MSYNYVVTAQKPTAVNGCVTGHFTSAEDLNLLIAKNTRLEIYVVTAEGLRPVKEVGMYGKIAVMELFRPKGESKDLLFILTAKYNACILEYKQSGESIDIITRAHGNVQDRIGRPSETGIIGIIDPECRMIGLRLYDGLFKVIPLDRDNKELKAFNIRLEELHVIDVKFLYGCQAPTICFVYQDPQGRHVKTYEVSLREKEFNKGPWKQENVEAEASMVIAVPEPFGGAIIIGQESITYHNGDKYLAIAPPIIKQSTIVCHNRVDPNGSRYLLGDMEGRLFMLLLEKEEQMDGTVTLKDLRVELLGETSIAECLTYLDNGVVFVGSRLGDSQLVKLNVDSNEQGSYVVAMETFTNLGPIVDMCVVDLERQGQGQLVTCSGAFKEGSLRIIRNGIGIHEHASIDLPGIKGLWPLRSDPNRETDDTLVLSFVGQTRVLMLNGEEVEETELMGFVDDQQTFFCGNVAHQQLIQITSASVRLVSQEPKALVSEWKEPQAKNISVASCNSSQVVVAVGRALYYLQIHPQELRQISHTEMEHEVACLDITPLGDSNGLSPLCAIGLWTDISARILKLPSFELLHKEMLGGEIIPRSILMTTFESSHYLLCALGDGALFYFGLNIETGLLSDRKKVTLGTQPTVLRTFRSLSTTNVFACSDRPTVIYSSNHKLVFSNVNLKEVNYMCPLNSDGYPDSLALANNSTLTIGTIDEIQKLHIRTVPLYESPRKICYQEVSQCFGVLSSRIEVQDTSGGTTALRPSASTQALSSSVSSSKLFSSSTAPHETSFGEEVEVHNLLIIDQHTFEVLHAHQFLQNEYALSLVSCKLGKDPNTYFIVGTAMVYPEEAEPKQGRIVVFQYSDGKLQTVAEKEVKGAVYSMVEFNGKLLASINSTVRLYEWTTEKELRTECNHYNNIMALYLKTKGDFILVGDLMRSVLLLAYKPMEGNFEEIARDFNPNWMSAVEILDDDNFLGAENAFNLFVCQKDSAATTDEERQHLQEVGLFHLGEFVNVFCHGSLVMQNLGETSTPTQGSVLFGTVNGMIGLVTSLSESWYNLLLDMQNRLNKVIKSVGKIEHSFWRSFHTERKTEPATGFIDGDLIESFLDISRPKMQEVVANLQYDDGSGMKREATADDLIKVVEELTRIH
Experimental: Compounds of the present disclosure was added to cells (final DMSO concentration of 0.1%) and incubated for 4 hours. GSPT1 levels were determined in MV-4-11 cells using Western Blot analysis. […] Protein levels were normalized to GAPDH levels.
The efficacy of GSPT1 degradation of a part of compounds of the present disclosure was determined by treating MV-4-11 cells at 0.1 μM (final DMSO concentration of 0.1%) for 4 hours. GSPT1 levels were determined using Western Blot and normalized to GAPDH levels.

GSPT1 [2] = molecular target: T1, GSPT1; assay: cell-based; settings: read-out: GSPT1 degradation classification
HCC827 cells = assay: NSCLC cell viability, CellTiter-Glo, HCC827 cells; type: cell-based; settings: Homo sapiens, read-out: Cell viability classification
Experimental: (§1) HCC827 cells were obtained from Korean Cell Line Bank (KCLB) and grown in RPMI supplemented with 10% FBS. The cells were maintained at 37° C. under 5% CO2.
(§2) The efficacy of the present disclosure to reduce viability of Non-Small Cell Lung Cancer (NSCLC) cells was assessed using CellTiter-Glo Cell Viability Assay (Promega) according to the manufacturer's protocol. […] The luminescence was normalized to that of DMSO-treated samples. IC50 values were obtained using three-parameter non-linear regressions using Prism (GraphPad).
The efficacy of additional compounds of the present disclosure in reducing HCC827 cell viability was determined by treating HCC827 cells at various concentrations (final DMSO concentration of 0.1%). Cell viability was measured using the CellTiter-Glo reagent after 72 hours of treatment.

GSPT1 [3] = molecular target: T1, GSPT1; assay: GSPT1 degradation, Western Blot, HCC827 cells, 1 μM, 16 hours; type: cell-based; settings: % reduction of GSPT1 compared to DMSO, normalized to GAPDH, read-out: GSPT1 degradation classification
Experimental: as §1
Compounds of the present disclosure was added to cells (final DMSO concentration of 0.1%) and incubated for 16 hours. GSPT1 levels were determined in HCC827 cells using Western Blot analysis. […] Protein levels were normalized to GAPDH levels.
The efficacy of GSPT1 degradation of a part of compounds of the present disclosure was determined by treating HCC827 cells at 1 μM (final DMSO concentration of 0.1%) for 16 hours. GSPT1 levels were determined using Western Blot and normalized to GAPDH levels.

A549 cells = assay: NSCLC cell viability, CellTiter-Glo, A549 cells; type: cell-based; settings: Homo sapiens, 72 hours of treatment, read-out: Cell viability classification
Experimental: A549 cells were obtained from Korean Cell Line Bank (KCLB) and grown in RPMI supplemented with 10% FBS. The cells were maintained at 37° C. under 5% CO2.
as §2
The efficacy of additional compounds of the present disclosure in reducing A549 cell viability was determined by treating A549 cells at various concentrations (final DMSO concentration of 0.1%). Cell viability was measured using the CellTiter-Glo reagent after 72 hours of treatment.

GSPT1 [4] = molecular target: T1, GSPT1; assay: GSPT1 degradation, Western Blot, A549 cells, 1 μM, 16 hours; type: cell-based; settings: % reduction of GSPT1 compared to DMSO, normalized to GAPDH, read-out: GSPT1 degradation classification
Experimental: Compounds of the present disclosure was added to cells (final DMSO concentration of 0.1%) and incubated for 16 hours. GSPT1 levels were determined in A549 cells using Western Blot analysis. […] Protein levels were normalized to GAPDH levels.
The efficacy of GSPT1 degradation of a part of compounds of the present disclosure was determined by treating A549 cells at 1 μM (final DMSO concentration of 0.1%) for 16 hours. GSPT1 levels were determined using Western Blot and normalized to GAPDH levels.

[5] = TABLE 2, MV-4-11 cells assumed, 44 hours
[6] = MV-4-11 cells, 44 hours of treatment, TABLE 1
[7] = MV4-11, MV-4-11 cells, 1 μM, 6 hours, Western Blot, % reduction of GSPT1 compared to DMSO, normalized to GAPDH
[8] = HCC827 cells, CellTiter-Glo, 72 hours of treatment

`O=C1CCC(N2Cc3cc(C(=O)N4CCc5c(F)ccc(F)c54)ccc3C2=O)C(=O)N1` (stereo not shown) [Example 63, 3-(5-(4,7-difluoroindoline-1-carbonyl)-1-oxoisoindolin-2-yl)piperidine-2,6-dione] was tested, and the IC50 (MV-4-11 cells; [5]) was 100 to 1000 nM and the inhibition at 0.1 µM (GSPT1 [1]) was < 50%.
In the case of `O=C1CCC(N2Cc3cc(C(=O)N4CCc5c4ccc(F)c5F)ccc3C2=O)C(=O)N1` (stereo not shown) [Example 65, 3-(5-(4,5-difluoroindoline-1-carbonyl)-1-oxoisoindolin-2-yl)piperidine-2,6-dione], the IC50 (MV-4-11 cells; [5]) is reported as < 100 nM and the inhibition at 0.1 µM (GSPT1 [1]) is reported as < 50%.
`O=C1CCC(N2Cc3cc(C(=O)N4CCc5c4ccc(Cl)c5F)ccc3C2=O)C(=O)N1` (stereo not shown) [Example 66, 3-(5-(5-chloro-4-fluoroindoline-1-carbonyl)-1-oxoisoindolin-2-yl)piperidine-2,6-dione] was tested, and the IC50 (MV-4-11 cells; [5]) was < 100 nM and the inhibition at 0.1 µM (GSPT1 [1]) was < 50%.
With `O=C1CCC(N2Cc3cc(C(=O)Nc4csc5cccc(F)c45)ccc3C2=O)C(=O)N1` (stereo not shown) [Example 67, 2-(2,6-dioxopiperidin-3-yl)-N-(4-fluorobenzo[b]thiophen-3-yl)-1-oxoisoindoline-5-carboxamide] the IC50 (MV-4-11 cells; [5]) was < 100 nM and the inhibition at 0.1 µM (GSPT1 [1]) was 50 to 75%.
With `O=C1CCC(N2Cc3cc(C(=O)Nc4csc5ccc(F)cc45)ccc3C2=O)C(=O)N1` (stereo not shown) [Example 68, 2-(2,6-dioxopiperidin-3-yl)-N-(5-fluorobenzo[b]thiophen-3-yl)-1-oxoisoindoline-5-carboxamide] the IC50 (MV-4-11 cells; [5]) was < 100 nM and the inhibition at 0.1 µM (GSPT1 [1]) was 50 to 75%.
For `O=C1CCC(N2Cc3cc(C(=O)Nc4csc5cc(F)ccc45)ccc3C2=O)C(=O)N1` (stereo not shown) [Example 69, 2-(2,6-dioxopiperidin-3-yl)-N-(6-fluorobenzo[b]thiophen-3-yl)-1-oxoisoindoline-5-carboxamide], the IC50 (MV-4-11 cells; [5]) was < 100 nM and the inhibition at 0.1 µM (GSPT1 [1]) was 50 to 75%.
In the case of `O=C1CCC(N2Cc3cc(C(=O)Nc4csc5c(F)cccc45)ccc3C2=O)C(=O)N1` (stereo not shown) [Example 70, 2-(2,6-dioxopiperidin-3-yl)-N-(7-fluorobenzo[b]thiophen-3-yl)-1-oxoisoindoline-5-carboxamide], the IC50 (MV-4-11 cells; [5]) is reported as < 100 nM and the inhibition at 0.1 µM (GSPT1 [1]) is reported as < 50%.
For `O=C1CCC(N2Cc3cc(C(=O)NC45CC(F)(C4)C5)ccc3C2=O)C(=O)N1` (stereo not shown) [Example 71, 2-(2,6-dioxopiperidin-3-yl)-N-(3-fluorobicyclo[1.1.1]pentan-1-yl)-1-oxoisoindoline-5-carboxamide], the IC50 (MV-4-11 cells; [5]) was > 1000 nM and the inhibition at 0.1 µM (GSPT1 [1]) was < 50%.
`O=C1CCC(N2Cc3cc(C(=O)NC45CCC(F)(CC4)CC5)ccc3C2=O)C(=O)N1` (stereo not shown) [Example 72, 2-(2,6-dioxopiperidin-3-yl)-N-(4-fluorobicyclo[2.2.2]octan-1-yl)-1-oxoisoindoline-5-carboxamide] showed an IC50 (MV-4-11 cells; [5]) of 100 to 1000 nM and an inhibition at 0.1 µM (GSPT1 [1]) of 50 to 75%.
In the case of `O=C1CCC(N2Cc3cc(C(=O)N4CCc5ccc(OC(F)(F)F)cc54)ccc3C2=O)C(=O)N1` (stereo not shown) [Example 81, 3-(1-oxo-5-(6-(trifluoromethoxy)indoline-1-carbonyl)isoindolin-2-yl)piperidine-2,6-dione], the IC50 (MV-4-11 cells; [6]) is reported as > 1000 nM and the inhibition at 1 µM (GSPT1 [2]; MV4-11, 6 h) is reported as < 50%.
With `COc1cccc2c1CCN2C(=O)c1ccc2c(c1)CN(C1CCC(=O)NC1=O)C2=O` (stereo not shown) [Example 82, 3-(5-(4-methoxyindoline-1-carbonyl)-1-oxoisoindolin-2-yl)piperidine-2,6-dione] the IC50 (MV-4-11 cells; [6]) was < 100 nM and the inhibition at 1 µM (GSPT1 [2]; [7]) was 50 to 75%.
With `COc1ccc2c(c1)CCN2C(=O)c1ccc2c(c1)CN(C1CCC(=O)NC1=O)C2=O` (stereo not shown) [Example 83, 3-(5-(5-methoxyindoline-1-carbonyl)-1-oxoisoindolin-2-yl)piperidine-2,6-dione] the IC50 (MV-4-11 cells; [6]) was < 100 nM and the inhibition at 1 µM (GSPT1 [2]; MV4-11, 6 h) was < 50%.
With `COc1ccc2c(c1)N(C(=O)c1ccc3c(c1)CN(C1CCC(=O)NC1=O)C3=O)CC2` (stereo not shown) [Example 84, 3-(5-(6-methoxyindoline-1-carbonyl)-1-oxoisoindolin-2-yl)piperidine-2,6-dione] the IC50 (MV-4-11 cells; [6]) was 100 to 1000 nM and the inhibition at 1 µM (GSPT1 [2]; MV4-11, 6 h) was < 50%.
For `COc1cccc2c1N(C(=O)c1ccc3c(c1)CN(C1CCC(=O)NC1=O)C3=O)CC2` (stereo not shown) [Example 85, 3-(5-(7-methoxyindoline-1-carbonyl)-1-oxoisoindolin-2-yl)piperidine-2,6-dione], the IC50 (MV-4-11 cells; [6]) was 100 to 1000 nM and the inhibition at 1 µM (GSPT1 [2]; [7]) was < 50%.
For `O=C1CCC(N2Cc3cc(C(=O)N4CCc5c(Cl)ccc(F)c54)ccc3C2=O)C(=O)N1` (stereo not shown) [Example 86, 3-(5-(4-chloro-7-fluoroindoline-1-carbonyl)-1-oxoisoindolin-2-yl)piperidine-2,6-dione], the IC50 (HCC827 cells; HCC827, 72 h) was > 1000 nM.
`O=C1CCC(N2Cc3cc(C(=O)N4Cc5cccc(F)c5C4)ccc3C2=O)C(=O)N1` (stereo not shown) [Example 87, 3-(5-(4-fluoroisoindoline-2-carbonyl)-1-oxoisoindolin-2-yl)piperidine-2,6-dione] was tested, and the IC50 (HCC827 cells; HCC827, 72 h) was < 1000 nM and the inhibition at 1 µM (GSPT1 [3]) was > 75%.
For `O=C1CCC(N2Cc3cc(C(=O)N4Cc5ccc(F)cc5C4)ccc3C2=O)C(=O)N1` (stereo not shown) [Example 88, 3-(5-(5-fluoroisoindoline-2-carbonyl)-1-oxoisoindolin-2-yl)piperidine-2,6-dione], the IC50 (HCC827 cells; HCC827, 72 h) was < 1000 nM and the inhibition at 1 µM (GSPT1 [3]) was > 75%.
With `O=C1CCC(N2Cc3cc(C(=O)Nc4nsc5ccccc45)ccc3C2=O)C(=O)N1` (stereo not shown) [Example 89, N-(benzo[d]isothiazol-3-yl)-2-(2,6-dioxopiperidin-3-yl)-1-oxoisoindoline-5-carboxamide] the IC50 (HCC827 cells; [8]) was > 1000 nM.
`O=C1CCC(N2Cc3cc(C(=O)Nc4cscn4)ccc3C2=O)C(=O)N1` (stereo not shown) [Example 90, 2-(2,6-dioxopiperidin-3-yl)-1-oxo-N-(thiazol-4-yl)isoindoline-5-carboxamide] was tested, and the IC50 (HCC827 cells; [8]) was > 1000 nM.
With `O=C1CCC(N2Cc3cc(C(=O)Nc4csc5ccccc45)c(F)cc3C2=O)C(=O)N1` (stereo not shown) [Example 91, N-(benzo[b]thiophen-3-yl)-2-(2,6-dioxopiperidin-3-yl)-6-fluoro-1-oxoisoindoline-5-carboxamide] the IC50 (A549 cells) was < 1000 nM and the inhibition at 1 µM (GSPT1 [4]) was > 75%.
For `O=C1CCC(N2Cc3cc(C(=O)N4CCc5c(F)cc(F)cc54)ccc3C2=O)C(=O)N1` (stereo not shown) [Example 92, 3-(5-(4,6-difluoroindoline-1-carbonyl)-1-oxoisoindolin-2-yl)piperidine-2,6-dione], the IC50 (A549 cells) was < 1000 nM.
For `O=C1CCC(N2Cc3cc(C(=O)Nc4ccccc4)ccc3C2=O)C(=O)N1` (stereo not shown) [Example 93, 2-(2,6-dioxopiperidin-3-yl)-1-oxo-N-phenylisoindoline-5-carboxamide], the IC50 (A549 cells) was 1000 to 30000 nM.
In the case of `O=C1CCC(N2Cc3cc(C(=O)Nc4ccccc4F)ccc3C2=O)C(=O)N1` (stereo not shown) [Example 94, 2-(2,6-dioxopiperidin-3-yl)-N-(2-fluorophenyl)-1-oxoisoindoline-5-carboxamide], the IC50 (A549 cells) is reported as > 1000 nM.
With `O=C1CCC(N2Cc3cc(C(=O)Nc4cccc5cccnc45)ccc3C2=O)C(=O)N1` (stereo not shown) [Example 95, 2-(2,6-dioxopiperidin-3-yl)-1-oxo-N-(quinolin-8-yl)isoindoline-5-carboxamide] the IC50 (A549 cells) was > 1000 nM.
`O=C1CCC(N2Cc3cc(C(=O)NC4CCCCC4)ccc3C2=O)C(=O)N1` (stereo not shown) [Example 96, N-cyclohexyl-2-(2,6-dioxopiperidin-3-yl)-1-oxoisoindoline-5-carboxamide] was tested, and the IC50 (A549 cells) was 1000 to 30000 nM and the inhibition at 1 µM (GSPT1 [4]) was 50 to 75%.
